We go through six molecules from US7186534B1 (The Trustees of Columbia University in the City of New York, priority 1997, dated 2007).

Common to all, as to format: biochemical
The target in assay [1] is T1, mouse 9cRDH (m9cRDH) (Mus musculus, UniProt O55240).
T1 sequence (O55240 1-318): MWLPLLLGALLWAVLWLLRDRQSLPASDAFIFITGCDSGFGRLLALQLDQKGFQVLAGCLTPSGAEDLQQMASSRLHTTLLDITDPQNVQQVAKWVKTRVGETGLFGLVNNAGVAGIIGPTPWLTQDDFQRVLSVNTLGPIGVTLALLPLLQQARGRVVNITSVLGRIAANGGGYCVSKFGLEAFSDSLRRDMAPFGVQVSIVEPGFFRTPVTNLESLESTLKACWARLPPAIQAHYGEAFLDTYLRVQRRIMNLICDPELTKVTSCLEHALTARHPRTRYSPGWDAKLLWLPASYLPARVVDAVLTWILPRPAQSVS
Kind of assay: Retinaldehyde isomer reduction by recombinant mouse 9cRDH. The note with it: for m9cRDH specific activity, retinaldehyde reduction: substrate 10 μM, 15 min, 150–180 μg protein/assay, NADH, pH 5.0. As to the method:
(§1) Enzymatic Assays. Assays for human and mouse 9cRDH were carried out essentially as were described previously for human 9cRDH (19). For expression of mouse 9cRDH a cDNA clone obtained from a mouse liver cDNA library was employed (see below). Recombinant human or mouse 9cRDH expressed in CHO cells was incubated in an assay mixture containing 10 μM 9-cis-retinol (added in 0.02 mL ethanol) and 2 mM NAD in 10 mM Hepes, pH 8.0, containing 150 mM KCl, 1 mM EDTA, and 50 μg phosphotidyl choline for 15 min at 37° C. (final assay volume of 0.6 ml) with agitation. This assay mixture was used routinely to measure oxidation of 9-cis-retinol to 9-cis-retinaldehyde and in studies assessing oxidation of 11-cis-, 13-cis- and all-trans-retinol to their corresponding aldehydes. For some experiments, the ability of human or mouse 9cRDH to catalyze the reduction of 9-cis-, 11-cis-, 13-cis- or all-trans-retinaldehyde was assessed. To assess these reduction reactions, incubations were carried out in 100 mM sodium acetate, pH 5.0, containing 50 μg phosphotidyl choline and 2 mM NADH (or 2 mM NADPH) in a final volume of 0.6 ml for 15 min at 37° C.
(§2) Immediately following incubation of the assay, the assay mixture was denatured with an equal volume of absolute ethanol (0.6 ml), and the retinoids extracted into 2.5 ml of hexane. Following one backwash of the hexane extract with 0.5 ml of deionized water, the hexane was evaporated to dryness under a gentle stream of N2. The extracted retinoids were immediately redissolved in 120 μl of hexane and analyzed by normal phase HPLC as described below.

For assay [2], the target named is T2, human 9cRDH (h9cRDH) (Homo sapiens, UniProt Q92781).
T2 sequence (Q92781 1-318): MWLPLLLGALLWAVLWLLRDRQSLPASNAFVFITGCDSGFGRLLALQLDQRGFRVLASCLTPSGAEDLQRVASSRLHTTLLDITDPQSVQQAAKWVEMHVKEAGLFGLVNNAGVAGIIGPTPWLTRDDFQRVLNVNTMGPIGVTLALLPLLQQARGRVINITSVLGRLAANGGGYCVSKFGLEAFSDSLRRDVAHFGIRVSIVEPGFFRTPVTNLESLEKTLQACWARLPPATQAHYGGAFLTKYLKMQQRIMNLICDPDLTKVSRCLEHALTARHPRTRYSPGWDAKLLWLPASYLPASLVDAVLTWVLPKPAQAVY
Kind of assay: Retinaldehyde isomer reduction by recombinant human 9cRDH. The note with it: for h9cRDH specific activity, retinaldehyde reduction: substrate 10 μM, 15 min, 150–180 μg protein/assay, NADH, pH 5.0. As to the method:
as §1, §2

In assay [3] the target is T2, human 9cRDH (h9cRDH). Kind of assay: Retinol isomer oxidation by recombinant human 9cRDH (substrate and cofactor specificity). The note with it: for h9cRDH specific activity, retinol oxidation: substrate 10 μM, 15 min, 150–180 μg protein/assay, NAD+. On the procedure:
Enzymatic Assay of Retinol Dehydrogenase Activity. Transfected CHO cell pellets were homogenized in PBS at 4° C. using 50 strokes of a Dounce homogenizer For assay of retinol dehydrogenase activity, aliquots of unfractionated CHO cell homogenate were incubated with 10, μM retinol (either as the all-trans, 13-cis, or 9-cis isomer added in ethanol) and either 2 mM NAD+ or 2 mM NADP+ in 10 mM Hepes containing 150 mM KCl, 1 mM EDTA, and 10, μg/ml phosphotidyl choline at pH 8.0 and 37° C. for prechosen time intervals. The final assay volume was 0.6 ml. Assays were routinely carried out in amber glass tubes that had been flushed with N2 to shield the retinoids from both light and O2 All subsequent extractions and procedures were carried out in a manner that minimized exposure of the retinoids to light and O2.
Immediately following incubation, the assay mixture was denatured with an equal volume of absolute ethanol (0.6 ml), and the retinoids were extracted into 3 ml of HPLC grade hexane. Following one backwash of the hexane extract with 0.5 ml of deionized water, the hexane was evaporated to dryness under a gentle stream of N2, and the extracted retinoids were immediately redissolved in 120 μl of hexane and analyzed by normal phase HPLC (see below).
HPLC Procedures. Stereoisomers of both retinol and retinaldehyde were separated on a 4.6×250-mm Vydac 101HS54 silica column using hexane:n-propanol:1-octanol (98.9:1.0:0.1 v/v) flowing at 1.5 ml/min as the mobile phase. The running column was preceded by a silica guard column. Retinols and retinaldehydes were detected by UV absorbance at 350 nm. Retention times for all-trans-, 13-cis-, and 9-cis-retinols were established using purified compounds obtained as described above. Retention times for all-trans-, 13-cis-, and 9-cis-retinaldehyde were determined using commercial standards (Sigma). Quantities of each retinol and retinaldehyde isomer present in extracts were determined by comparisons of the integrated areas under the HPLC peaks with a standard curve constructed relating integrated peak area with known masses of each retinoid isomer. The concentrations of each retinoid isomer were determined by UV-visible spectrophotometry using published extinction coefficients for each retinol and retinaldehyde isomer (26).
as §1, §2

Assay [4] addresses T1, mouse 9cRDH (m9cRDH). Kind of assay: Retinol isomer oxidation by recombinant mouse 9cRDH. Particulars: for m9cRDH specific activity, retinol oxidation: substrate 10 μM, 15 min, 150–180 μg protein/assay, NAD+. As to the method:
as §1, §2

Assay [5] deals with T3, mouse 9cRDH (Mus musculus, UniProt O55240).
T3 sequence (O55240 1-318): T1 sequence (O55240 1-318)
Kind of assay: Inhibition of recombinant mouse 9cRDH activity (9-cis-retinol oxidation, CHO cell homogenate, HPLC). Particulars: 10 μM 9-cis-retinol.

Assay [6] addresses T4, human 9-cis retinol dehydrogenase (9cRDH) (Homo sapiens, UniProt Q92781).
T4 sequence (Q92781 1-318): T2 sequence (Q92781 1-318)
Kind of assay: Inhibition of recombinant human 9cRDH activity (9-cis-retinol oxidation, CHO cell homogenate, HPLC). Particulars: 10 μM 9-cis-retinol.

Where [7] appears, read: equimolar concentrations, any substrate.

“Also recorded” adds a separate entry of the source.

Consider `CC1=C(/C=C/C(C)=C/C=C/C(C)=C\C=O)C(C)(C)CCC1` [13-cis-retinaldehyde], for which the “m9cRDH specific activity, retinaldehyde reduction” value in assay [1] worked out at 748 pmol/min/mg protein. Also, the “h9cRDH specific activity, retinaldehyde reduction” value in assay [2] is reported as 744 pmol/min/mg protein.
Consider `CC1=C(/C=C/C(C)=C/C=C/C(C)=C\CO)C(C)(C)CCC1` [13-cis-retinol], for which, in assay [3] (first series, 2 mM NAD+, 10 μM retinol), the “rate of oxidation relative to that observed for 9-cis-retinol” value is listed as 10%. The “h9cRDH specific activity, retinol oxidation” value in assay [3] stood at 0.3 pmol/min/mg protein. For the same molecule, in assay [4], the “m9cRDH specific activity, retinol oxidation” value is 2.0 pmol/min/mg protein.
With `NC(=O)c1ccc[n+]([C@@H]2O[C@H](COP(=O)([O-])OP(=O)(O)OC[C@H]3O[C@@H](n4cnc5c(N)ncnc54)[C@H](OP(=O)(O)O)[C@@H]3O)[C@@H](O)[C@H]2O)c1` [NADP+], the “cofactor activity relative to NAD+ for 9-cis-retinol oxidation” value in assay [3] (both at 2 mM) came out at 8%. The “reaction rate supported relative to NAD+, human 9cRDH retinol oxidation” value in assay [3] (setting [7]) is reported as not above 10%. Further, the “reaction rate supported relative to NAD+, mouse 9cRDH retinol oxidation” value in assay [4] (setting [7]) is recorded as not above 10%.
Take `CC1=C(/C=C/C(C)=C/C=C/C(C)=C/CO)C(C)(C)CCC1` [all-trans Retinol, All-trans-retinol]: the “inhibition of mouse 9cRDH activity (in words)” value in assay [5] is recorded as “only very weak inhibitors”. Also, in assay [3] (2 mM NAD+), the “oxidation to the corresponding retinaldehyde by transfected CHO cell homogenate (in words)” value was “unable to catalyze the oxidation”. In addition, the “h9cRDH specific activity, retinol oxidation” value in assay [3] is given as 0.5 pmol/min/mg protein. The “inhibition of human 9cRDH activity (in words)” value in assay [6] (listed as all-trans retinol) was “did not inhibit”; in assay [6] (listed as all-trans-retinol), “only very weak inhibitors; also recorded: did not inhibit”. In assay [4], the “m9cRDH specific activity, retinol oxidation” value is 0.6 pmol/min/mg protein.
For the molecule `CC1=C(/C=C/C(C)=C/C=C/C(C)=C/C=O)C(C)(C)CCC1` [all-trans-retinaldehyde], in assay [1], the “m9cRDH specific activity, retinaldehyde reduction” value is recorded as 1.3 pmol/min/mg protein. Further, the “h9cRDH specific activity, retinaldehyde reduction” value in assay [2] stood at 1.1 pmol/min/mg protein.
Turning to NADPH, the “reaction rate supported relative to NADH, mouse 9cRDH retinaldehyde reduction” value in assay [1] (setting [7]) is listed as not above 10%. Also, the “reaction rate supported relative to NADH, human 9cRDH retinaldehyde reduction” value in assay [2] (setting [7]) was not above 10%.
